Experimental data reported in patent US7074190B2, “Non-invasive apparatus system for monitoring drug hepatoxicity and uses thereof” (priority 2002, dated 2006).

Tests used:
adult dogs [1] = experiment: Artery blood pressure waveform analysis before and after taking the drug, dog experiment; type: in vivo; details: Code B dog, 1,200 mg/kg subcutaneous injection
Excerpt: The definition of parameter altered amount is: (the parameter value after taking the drug—the parameter value before taking the drug)/the parameter value before taking the drug *100%

adult dogs [2] = experiment: Blood test for drug-induced hepatotoxicity, dog experiment
Protocol: Two adult dogs weighing 12 and 15 kg were used. One (coded A) of them received 500 mg/kg of body weight of acetaminophen oral solution (dissolved in water); and the other one (coded B) received a higher concentration (1,200 mg/kg of body weight) of acetaminophen via subcutaneous injection. After Nembutal was injected and the respirator was put on, the hair on the front legs of the dogs was shaved and a blood pressure waveform sensor was inserted by operation. The waveform of artery blood pressure waveform on brachial position was continuously recorded and analyzed by a computer with a frequency of 100 data per minute. After surgery and before the drug was orally taken or injected, the blood pressure waveform of each dog was measured for two hours as the baseline. After the drug was orally taken or injected, the blood pressure waveform was continuously monitored for analyzing the hepatotoxicity induced by the drug, and blood samples were periodically taken from a tube inserted into the artery for determining the level of hepatotoxicuty.

[3] = before and after taking the drug (12 hours)
[4] = Code A dog, 500 mg/kg oral, 1 hour after the drug was administered
[5] = Code A dog, 500 mg/kg oral, 6 hours after the drug was administered
[6] = Code A dog, 500 mg/kg oral, 12 hours after the drug was administered
[7] = Code B dog, 1,200 mg/kg subcutaneous injection, 1 hour after the drug was administered
[8] = Code B dog, 1,200 mg/kg subcutaneous injection, 6 hours after the drug was administered
[9] = Code B dog, 1,200 mg/kg subcutaneous injection, 12 hours after the drug was administered

CC(=O)Nc1ccc(O)cc1 [acetaminophen]
Pressure parameter P5 = Gg (adult dogs [1]; 12 hours after taking the drug): P5 = Gg = 16 mmHg | Ratio parameter RA1 = A6/A5 (adult dogs [1]; 12 hours after taking the drug): RA1 = A6/A5 = 0.87 | Ratio parameter RA2 = A5/A7 (adult dogs [1]; 12 hours after taking the drug): RA2 = A5/A7 = 0.53 | Ratio parameter RA3 = A6/A7 (adult dogs [1]; 12 hours after taking the drug): RA3 = A6/A7 = 0.47 | Ratio parameter RP1 = Ff/Bb (adult dogs [1]; 12 hours after taking the drug): RP1 = Ff/Bb = 0.42 | Ratio parameter RT1 = ab/ag (adult dogs [1]; 12 hours after taking the drug): RT1 = ab/ag = 0.17 | Ratio parameter RT2 = ae/ag (adult dogs [1]; 12 hours after taking the drug): RT2 = ae/ag = 0.42 | Ratio parameter RT3 = af/ag (adult dogs [1]; 12 hours after taking the drug): RT3 = af/ag = 0.63 | Superficial measure parameter A1 = AabB (adult dogs [1]; 12 hours after taking the drug): A1 = AabB = 2.44 sec. * mmHg | Superficial measure parameter A2 = BbeE (adult dogs [1]; 12 hours after taking the drug): A2 = BbeE = 2.58 sec. * mmHg | Superficial measure parameter A3 = EefF (adult dogs [1]; 12 hours after taking the drug): A3 = EefF = 1.68 sec. * mmHg | Superficial measure parameter A4 = FfgG (adult dogs [1]; 12 hours after taking the drug): A4 = FfgG = 2.70 sec. * mmHg | Superficial measure parameter A5 = A1 + A2 (adult dogs [1]; 12 hours after taking the drug): A5 = A1 + A2 = 5.02 sec. * mmHg | Superficial measure parameter A6 = A3 + A4 (adult dogs [1]; 12 hours after taking the drug): A6 = A3 + A4 = 4.38 sec. * mmHg | Superficial measure parameter A7 = A5 + A6 (adult dogs [1]; 12 hours after taking the drug): A7 = A5 + A6 = 9.40 sec. * mmHg | Time parameter T1 = ab (adult dogs [1]; 12 hours after taking the drug): T1 = ab = 0.04 second | Time parameter T2 = be (adult dogs [1]; 12 hours after taking the drug): T2 = be = 0.06 second | Time parameter T3 = ef (adult dogs [1]; 12 hours after taking the drug): T3 = ef = 0.05 second | Time parameter T4 = fg (adult dogs [1]; 12 hours after taking the drug): T4 = fg = 0.09 second | Time parameter T5 = ag (adult dogs [1]; 12 hours after taking the drug): T5 = ag = 0.24 second | number of parameter altered amounts exceeding 100% (adult dogs [1]; TABLE 8): six | Oblique angle parameter Altered amount D2 = (Bb-Ee)/be (adult dogs [1]; [3]): D2 = (Bb-Ee)/be = 349% | Oblique angle parameter Altered amount D3 = (Ff-Ee)/ef (adult dogs [1]; [3]): D3 = (Ff-Ee)/ef = 23% | Oblique angle parameter Altered amount D4 = (Ff-Gg)/fg (adult dogs [1]; [3]): D4 = (Ff-Gg)/fg = 677% | Pressure parameter Altered amount P1 = Aa (adult dogs [1]; [3]): P1 = Aa = −85% | Pressure parameter Altered amount P2 = Bb (adult dogs [1]; [3]): P2 = Bb = −25% | Pressure parameter Altered amount P3 = Ee (adult dogs [1]; [3]): P3 = Ee = −79% | Pressure parameter Altered amount P4 = Ff (adult dogs [1]; [3]): P4 = Ff = −65% | Pressure parameter Altered amount P5 = Gg (adult dogs [1]; [3]): P5 = Gg = −85% | Ratio parameter Altered amount RA1 = A6/A5 (adult dogs [1]; [3]): RA1 = A6/A5 = 123% | Ratio parameter Altered amount RA2 = A5/A7 (adult dogs [1]; [3]): RA2 = A5/A7 = 89% | Ratio parameter Altered amount RA3 = A6/A7 (adult dogs [1]; [3]): RA3 = A6/A7 = −35% | Ratio parameter Altered amount RP1 = Ff/Bb (adult dogs [1]; [3]): RP1 = Ff/Bb = −51% | Ratio parameter Altered amount RT1 = ab/ag (adult dogs [1]; [3]): RT1 = ab/ag = 143% | Ratio parameter Altered amount RT2 = ae/ag (adult dogs [1]; [3]): RT2 = ae/ag = 55% | Ratio parameter Altered amount RT3 = af/ag (adult dogs [1]; [3]): RT3 = af/ag = 85% | Superficial measure parameter Altered amount A1 = AabB (adult dogs [1]; [3]): A1 = AabB = −62% | Superficial measure parameter Altered amount A2 = BbeE (adult dogs [1]; [3]): A2 = BbeE = −85% | Superficial measure parameter Altered amount A3 = EefF (adult dogs [1]; [3]): A3 = EefF = −72% | Superficial measure parameter Altered amount A4 = FfgG (adult dogs [1]; [3]): A4 = FfgG = −95% | Superficial measure parameter Altered amount A5 = A1 + A2 (adult dogs [1]; [3]): A5 = A1 + A2 = −47% | Superficial measure parameter Altered amount A6 = A3 + A4 (adult dogs [1]; [3]): A6 = A3 + A4 = −61% | Superficial measure parameter Altered amount A7 = A5 + A6 (adult dogs [1]; [3]): A7 = A5 + A6 = −84% | Time parameter Altered amount T1 = ab (adult dogs [1]; [3]): T1 = ab = −20% | Time parameter Altered amount T2 = be (adult dogs [1]; [3]): T2 = be = −54% | Time parameter Altered amount T3 = ef (adult dogs [1]; [3]): T3 = ef = 0% | Time parameter Altered amount T4 = fg (adult dogs [1]; [3]): T4 = fg = −80% | Time parameter Altered amount T5 = ag (adult dogs [1]; [3]): T5 = ag = −64% | oblique angle parameter Altered amount D1 = (Bb-Aa)/ab (adult dogs [1]; [3]): D1 = (Bb-Aa)/ab = 162% | oblique angle parameter Altered amount D5 = D1 + D2 (adult dogs [1]; [3]): D5 = D1 + D2 = 211% | oblique angle parameter Altered amount D6 = D3 + D4 (adult dogs [1]; [3]): D6 = D3 + D4 = 92% | ALT (SGPT) (adult dogs [2]; [4]): 25 IU/leter | ASG (SGOT) (adult dogs [2]; [4]): 35 IU/leter | Total biliflavin (adult dogs [2]; [4]): 0.3 mg/dL | ALT (SGPT) (adult dogs [2]; [5]): 23 IU/leter | ASG (SGOT) (adult dogs [2]; [5]): 33 IU/leter | Total biliflavin (adult dogs [2]; [5]): 0.2 mg/dL | ALT (SGPT) (adult dogs [2]; [6]): 24 IU/leter | ASG (SGOT) (adult dogs [2]; [6]): 45 IU/leter | Total biliflavin (adult dogs [2]; [6]): 0.2 mg/dL | ALT (SGPT) (adult dogs [2]; [7]): 33 IU/leter | ASG (SGOT) (adult dogs [2]; [7]): 38 IU/leter | Total biliflavin (adult dogs [2]; [7]): 0.2 mg/dL | ALT (SGPT) (adult dogs [2]; [8]): 37 IU/leter | ASG (SGOT) (adult dogs [2]; [8]): 198 IU/leter | Total biliflavin (adult dogs [2]; [8]): 0.2 mg/dL | ALT (SGPT) (adult dogs [2]; [9]): 47 IU/leter | ASG (SGOT) (adult dogs [2]; [9]): 298 IU/leter | Total biliflavin (adult dogs [2]; [9]): 0.2 mg/dL | biliflavin (adult dogs [2]; Code B dog, 1,200 mg/kg subcutaneous injection, acute poisoning experiment): does not raise significantly | ALT (adult dogs [2]; Code B dog, 1,200 mg/kg subcutaneous injection, after 12 hours): 47 IU/L | AST (SGOT) (adult dogs [2]; Code B dog, 1,200 mg/kg subcutaneous injection, after 12 hours, baseline 41): 298 IU/liter | hepatotoxicity shown by blood test results (adult dogs [2]; Code B dog, 1,200 mg/kg via subcutaneous injection): a certain level of hapatotoxicity
